Data taken from patent publication US8309767B2, “2-aminobenzoyl derivatives” (Neurim Pharmaceuticals (1991) Ltd., priority 2003, dated 2012).

Legend:
NMDA receptors = assay: Electrophysiological characterisation of NMDA-activated currents in freshly isolated hippocampal neurones (whole-cell patch clamp); assay type: cell-based; settings: rat hippocampal neurones
Protocol: Electrophysiological characterisation of NMDA-activated currents in freshly isolated hippocampal neurones of rat.
Isolation of hippocampal neurons: Wistar rats (12-14 days) were decapitated without anaesthesia and the hippocampus was removed. It was manually cut into slices (0.2-0.4 mm), in a solution containing (mM): 150 NaCl; 5 KCl; 1.25 NaH2PO4; 2 CaCl2; 2 MgCl2; 26 NaHCO3; 20 glucose. Slices were preincubated in this solution for 30 min at room temperature. The enzymatic treatment proceeded in the same solution with lower Ca2+ concentration (0.5 mm) containing 0.4 mg/ml protease from aspergillus oryzae. The incubation in the enzyme solution proceeded at 32° C. within 10 min. […]
Current recording and data analysis: The drug-containing solutions were applied by the fast “concentration clamp” method using “jumping table” set-up (Pharma Robot, Kiev). The currents were recorded with patch clamp technique in the whole-cell configuration. […]
NMDA-activated currents: The currents were filtered at 3 kHz (three-pole active Bessel filter) digitally sampled at the rate […] for NMDA activated currents. NMDA-induced transmembrane currents were measured in the presence of 10 μM glycine and 300 μM L-aspartate in the control and test solutions. The currents were recorded at holding potential −70 mV. […]

MPTP-treated mice = assay: Anti-Parkinsonian activity: motor activity of MPTP-treated mice with/without a subthreshold dose of L-Dopa; assay type: in vivo, C57 BL/6 mice; settings: for LOCOMOTION / REARING / TOTAL ACTIVITY: mean ± SD
Protocol: Evaluation of the anti-Parkinsonian activity using MPTP-treated mice with/without a subthreshold dose of L-Dopa
Animals: six month old male C57 BL/6 mice, weighing 22-25 g were used. Following arrival at the laboratory, the mice were allowed to acclimatise for two weeks in a room with controlled temperature (21±1° C.), and a constant light-dark schedule (12 hr on/12 hr off, lights on between 06.00 and 18.00 hrs). Free access to food and water was maintained throughout. They were housed in groups of 12 animals and tested only during the hours of light (08.00-15.00 hrs). All testing was performed in a normally lighted room. Each test chamber (i.e. activity test cage) was placed in a soundproofed wooden box with 12 cm thick walls and front panels and had dimmed lighting.
Behavioral measurements and apparatus: An automated device, consisting of macrolon rodent test cages (40×25×15 cm) each placed within two series of infra-red beams (at two different heights, one low and one high, 2 and 8 cm, respectively, above the surface of the sawdust, 1 cm deep), was used to measure spontaneous and/or drug-induced motor activity of MPTP and control mice. The following parameters were measured: LOCOMOTION was measured by the low grid of infrared beams. Counts were registered only when the mouse in the horizontal plane, ambulating around the test-cage. REARING was registered throughout the time when at least one high level beam was interrupted, i.e. the number of counts registered was proportional to the amount of time spent rearing. TOTAL ACTIVITY was measured by a sensor (a pick-up similar to a gramophone needle, mounted on a lever with a counterweight) with which the test cage was constantly in contact. The sensor registered all types of vibration received from the test cage, such as those produced both by locomotion and rearing as well as shaking, tremors, scratching and grooming.
Behavioral measurements (locomotion, rearing and total activity): Twelve days after MPTP injections (2×40 mg/kg, s.c., 24 hr interval), the mice were injected i.p with 2-(2-aminobenzoyl)-N-(2,4-dinitrophenyl)ethylamine (0.3, 1, 3, 10 mg/kg) or vehicle (10% DMSO, 1% CMC) and immediately thereafter placed in the activity test chambers and their motor behaviour were monitored for 60 min. After 60 min, the mice were injected with 5 mg/kg L-Dopa (s.c) and then replaced in the test chamber and activity measurements maintained for a further 240 min. Each dose was separated by two days, starting from the lowest dose.
Table 1 presents the mean (± standard deviations) locomotion, rearing and total activity counts of MPTP-treated and control mice administered either 2-(2-aminobenzoyl)-N-(2,4-dinitrophenyl)ethylamine or vehicle administered with a subthreshold dose of L-Dopa. 1 % level of significance is represented by an asterisk (Tukey HSD test).

[1] = MPTP mice, 0.3 mg/kg i.p. with subthreshold L-Dopa 5 mg/kg s.c.
[2] = MPTP mice, 1 mg/kg i.p. with subthreshold L-Dopa 5 mg/kg s.c., * 1% significance
[3] = MPTP mice, 3 mg/kg i.p. with subthreshold L-Dopa 5 mg/kg s.c., * 1% significance
[4] = MPTP mice, 10 mg/kg i.p. with subthreshold L-Dopa 5 mg/kg s.c., * 1% significance

Nc1ccccc1C(=O)CCNc1ccc([N+](=O)[O-])cc1[N+](=O)[O-] [2-(2-aminobenzoyl)-N-(2,4-dinitrophenyl)ethylamine]
activity on NMDA receptors (NMDA receptors): blocking activity | locomotion, rearing and total activity of MPTP-treated mice (MPTP-treated mice; 1, 3 or 10 mg/kg, compared to the MPTP vehicle group): improved significantly | LOCOMOTION (MPTP-treated mice; [1]): 273 ± 64 counts | REARING (MPTP-treated mice; [1]): 290 ± 73 counts | TOTAL ACTIVITY (MPTP-treated mice; [1]): 5160 ± 1093 counts | LOCOMOTION (MPTP-treated mice; [2]): 473 ± 108 counts | REARING (MPTP-treated mice; [2]): 582 ± 145 counts | TOTAL ACTIVITY (MPTP-treated mice; [2]): 6250 ± 625 counts | LOCOMOTION (MPTP-treated mice; [3]): 510 ± 107 counts | REARING (MPTP-treated mice; [3]): 731 ± 110 counts | TOTAL ACTIVITY (MPTP-treated mice; [3]): 6563 ± 781 counts | LOCOMOTION (MPTP-treated mice; [4]): 470 ± 110 counts | REARING (MPTP-treated mice; [4]): 619 ± 102 counts | TOTAL ACTIVITY (MPTP-treated mice; [4]): 6250 ± 625 counts | effect on motor behaviour in the first 60-min period before L-Dopa (MPTP-treated mice; MPTP mice, any dose (0.3-10 mg/kg i.p.), compared to MPTP-treated vehicle mice): no effect at any dose | all three behavioural parameters when administered together with a subthreshold dose of L-Dopa (MPTP-treated mice; MPTP mice, with L-Dopa 5 mg/kg s.c.): improved significantly | effect on motor variables in vehicle control animals (MPTP-treated mice; vehicle control (non-MPTP) animals): no effects in any variable
